# Experimental data published in patent publication US20170157212A1, “CDK MODULATORS AND METHODS FOR THE TREATMENT OF CANCER” (Salk Institute for Biological Studies, priority 2015, published 2017).
# “Also recorded” adds a separate entry of the source.
# Legend:
# CDK7 = target: T1, CDK7 (Homo sapiens, UniProt P50613); assay: Co-immunoprecipitation of CRIF1 with CDK7; assay type: binding
# T1 construct: endogenous in cells
# Description: (§1) FIGS. 5A-5I. The Mitochondrial OX-PHOS Regulator, CRIF1, is a Novel Subunit of the Human CDK12 Kinase Complex. (A) Identification of CRIF1 as a near-stoichiometric subunit of the native CDK12 kinase complex. MudPIT analysis of CDK12 complexes from HEK293 cells that stably express HA-tagged full-length human CDK12. The HA-CDK12 complex was affinity-purified using anti-HA antibody and visualized by SDS-PAGE and silver-stain. (B) List of the identified proteins in the HA-CDK12 complex from (A). (C) Endogenous CRIF1 co-immunoprecipitates with native CDK12 in U2OS cell extracts. Shown is an immunoblot analysis of CRIF1, CCNK, and the chaperone proteins CDC37 and HSP90 in an anti-CDK12 immunoprecipitate. (D) CRIF1 is a specific subunit of the CDK12 complex. Native CRIF1 was immunoprecipitated from U2OS cells using an anti-CRIF1 antibody and analyzed by co-immunoprecipitation for association with various CDKs, as indicated. […] FLAG-CRIF1 proteins containing different C-terminal truncations were co-expressed with HA-CDK12 (aa 985-1490) and analyzed for binding by co-immunoprecipitation and immunoblot. […] Cell viability was analyzed after 72 hr. […] Expression of the mitochondrial MTCO-1 (COX1) protein was assessed using two different antisera. […] Each fraction (T; total, C:cytosolic, M:membrane/organelle, and N:nuclear) was analyzed by immunoblot using the indicated antibodies. […]
# CDK12 = assay: In vitro kinase assay: CDK12 phosphorylation of recombinant 4E-BP1 (S65, T70); assay type: biochemical, human; conditions: reactions with CDK12 and mTORC1/Raptor, dose-dependent
# Description: (§2) (A) CRIF1 and CDK12 have opposite effects on global RNAPII CTD-Ser2P levels in vivo. U2OS cells were transfected with indicated siRNAs for 48 hr, and RNAPII phosphorylation was monitored by immunoblot using phospho-specific CTD (Ser2P and Ser5P) antibodies. (B) Knockdown of CRIF1 up-regulates CHK1 expression and induction of p53. […] (C) Analysis of steady-state mRNA levels by qRT-PCR in extracts from U2OS cells exposed to control (CTL) or CRIF1-specific siRNAs, as indicated. (D) Depletion of CRIF1 enhances 4E-BP1 phosphorylation at S65 and T70 in vivo, as assessed by immunoblot using phospho-specific antibodies. (E) CRIF1 inhibits RNAPII CTD-Ser2 phosphorylation by CDK12 complexes in vitro. The human GST-CTD (52 repeat) protein was incubated in vitro with the affinity-purified HA-CDK12 kinase complex in the absence or presence of increasing levels of purified recombinant CRIF1, and analyzed by immunoblot with the indicated antisera. […] Analysis of GST-CTD Ser2 phosphorylation was carried out as described in (E), using the affinity-purified FLAG-CDK9 kinase. (G) CRIF1 inhibits 4E-BP1 phosphorylation by CDK12 in vitro. […] was monitored by immunoblot in the absence or in the presence of different levels of affinity-purified recombinant CRIF1. […]
# CDK9 = target: T2, CDK9 (Homo sapiens, UniProt P50750); assay: Co-immunoprecipitation of CRIF1 with CDK9; assay type: binding
# T2 construct: endogenous in cells
# Description: as §1
# [1] = target: T3, affinity-purified CDK9/P-TEFb complex (Homo sapiens, UniProt P50750); assay: In vitro kinase assay: CDK9/P-TEFb phosphorylation of GST-CTD; assay type: biochemical; conditions: affinity-purified FLAG-CDK9 kinase, immunoblot
# T3 construct: FLAG; made in house
# Description: as §2
# T3 sequence (P50750 whole entry): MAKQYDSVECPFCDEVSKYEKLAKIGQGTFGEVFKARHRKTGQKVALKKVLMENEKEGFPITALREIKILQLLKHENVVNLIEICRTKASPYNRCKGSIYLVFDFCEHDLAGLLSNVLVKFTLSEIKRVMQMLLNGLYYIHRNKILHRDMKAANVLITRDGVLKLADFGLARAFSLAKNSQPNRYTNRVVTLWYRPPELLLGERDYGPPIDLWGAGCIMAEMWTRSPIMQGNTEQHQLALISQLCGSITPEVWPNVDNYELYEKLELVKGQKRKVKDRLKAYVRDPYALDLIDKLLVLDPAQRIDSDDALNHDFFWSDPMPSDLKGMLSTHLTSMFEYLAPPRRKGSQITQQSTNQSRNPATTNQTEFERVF
# T3 sequence (O60563 whole entry partner): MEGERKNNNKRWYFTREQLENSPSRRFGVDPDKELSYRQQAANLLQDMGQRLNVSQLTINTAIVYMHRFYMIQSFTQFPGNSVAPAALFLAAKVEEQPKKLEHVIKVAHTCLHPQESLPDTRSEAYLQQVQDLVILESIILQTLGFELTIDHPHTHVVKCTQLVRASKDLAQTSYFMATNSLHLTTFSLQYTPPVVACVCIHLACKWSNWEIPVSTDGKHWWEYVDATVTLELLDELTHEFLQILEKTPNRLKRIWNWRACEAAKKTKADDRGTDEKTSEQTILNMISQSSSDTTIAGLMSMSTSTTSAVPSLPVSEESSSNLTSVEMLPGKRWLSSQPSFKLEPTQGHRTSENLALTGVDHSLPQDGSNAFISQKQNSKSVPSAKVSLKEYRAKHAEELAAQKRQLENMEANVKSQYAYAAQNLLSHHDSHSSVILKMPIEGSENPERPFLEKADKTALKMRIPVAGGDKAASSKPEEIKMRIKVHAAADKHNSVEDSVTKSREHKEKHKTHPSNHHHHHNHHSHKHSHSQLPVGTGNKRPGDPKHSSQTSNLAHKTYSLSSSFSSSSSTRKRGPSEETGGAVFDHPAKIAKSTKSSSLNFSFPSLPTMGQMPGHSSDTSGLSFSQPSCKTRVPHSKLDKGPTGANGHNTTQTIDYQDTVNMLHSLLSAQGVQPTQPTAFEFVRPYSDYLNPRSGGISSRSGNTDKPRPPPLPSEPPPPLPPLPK
# T2 sequence (P50750 whole entry): as the sequence (P50750 whole entry) above
# T1 sequence (P50613 whole entry): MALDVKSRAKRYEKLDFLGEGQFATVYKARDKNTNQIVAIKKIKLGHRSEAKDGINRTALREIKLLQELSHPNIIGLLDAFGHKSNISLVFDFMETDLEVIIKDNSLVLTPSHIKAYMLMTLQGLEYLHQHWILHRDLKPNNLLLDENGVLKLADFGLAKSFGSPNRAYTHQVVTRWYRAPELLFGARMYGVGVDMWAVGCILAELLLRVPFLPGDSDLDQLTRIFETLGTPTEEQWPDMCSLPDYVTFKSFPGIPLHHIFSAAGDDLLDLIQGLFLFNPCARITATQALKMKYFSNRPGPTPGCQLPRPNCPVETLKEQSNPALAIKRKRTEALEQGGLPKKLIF
# Chain of CDK12 (Q9NYV4 whole entry): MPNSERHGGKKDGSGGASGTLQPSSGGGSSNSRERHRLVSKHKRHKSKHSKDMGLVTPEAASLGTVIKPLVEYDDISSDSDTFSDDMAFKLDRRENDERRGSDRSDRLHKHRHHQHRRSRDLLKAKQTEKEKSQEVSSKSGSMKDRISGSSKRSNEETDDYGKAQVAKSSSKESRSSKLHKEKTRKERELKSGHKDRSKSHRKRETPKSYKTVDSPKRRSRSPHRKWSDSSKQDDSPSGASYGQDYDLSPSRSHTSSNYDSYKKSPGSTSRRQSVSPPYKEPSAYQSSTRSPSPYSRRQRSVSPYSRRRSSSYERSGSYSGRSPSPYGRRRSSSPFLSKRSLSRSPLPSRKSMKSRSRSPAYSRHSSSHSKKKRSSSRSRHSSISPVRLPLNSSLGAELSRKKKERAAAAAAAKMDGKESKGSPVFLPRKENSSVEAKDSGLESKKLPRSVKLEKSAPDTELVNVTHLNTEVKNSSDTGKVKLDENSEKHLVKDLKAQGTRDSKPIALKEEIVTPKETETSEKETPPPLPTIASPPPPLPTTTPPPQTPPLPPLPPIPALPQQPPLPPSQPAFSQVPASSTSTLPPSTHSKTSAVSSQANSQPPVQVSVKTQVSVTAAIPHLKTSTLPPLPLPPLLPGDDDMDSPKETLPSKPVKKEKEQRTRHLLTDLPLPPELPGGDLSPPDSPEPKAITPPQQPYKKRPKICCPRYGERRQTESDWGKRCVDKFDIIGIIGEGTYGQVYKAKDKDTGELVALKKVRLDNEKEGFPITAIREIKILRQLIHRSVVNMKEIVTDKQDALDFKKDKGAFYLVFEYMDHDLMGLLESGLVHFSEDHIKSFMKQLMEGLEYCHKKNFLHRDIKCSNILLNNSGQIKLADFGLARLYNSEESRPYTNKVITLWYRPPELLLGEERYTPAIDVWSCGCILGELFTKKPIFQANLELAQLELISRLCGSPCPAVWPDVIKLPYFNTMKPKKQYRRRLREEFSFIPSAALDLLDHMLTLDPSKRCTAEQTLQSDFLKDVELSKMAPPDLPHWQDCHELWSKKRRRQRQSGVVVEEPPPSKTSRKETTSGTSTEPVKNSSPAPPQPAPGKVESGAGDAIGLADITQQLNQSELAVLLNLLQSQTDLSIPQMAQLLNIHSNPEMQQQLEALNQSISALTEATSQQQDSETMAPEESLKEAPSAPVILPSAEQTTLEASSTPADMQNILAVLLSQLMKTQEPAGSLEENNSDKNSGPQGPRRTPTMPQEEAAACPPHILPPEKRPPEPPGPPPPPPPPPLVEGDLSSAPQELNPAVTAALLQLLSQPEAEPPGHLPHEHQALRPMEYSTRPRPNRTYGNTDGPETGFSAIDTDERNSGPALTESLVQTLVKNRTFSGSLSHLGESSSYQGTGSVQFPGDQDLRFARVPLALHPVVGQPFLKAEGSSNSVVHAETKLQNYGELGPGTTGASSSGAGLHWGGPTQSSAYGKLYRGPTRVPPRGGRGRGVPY
# Chain of CDK12 (O75909 whole entry partner): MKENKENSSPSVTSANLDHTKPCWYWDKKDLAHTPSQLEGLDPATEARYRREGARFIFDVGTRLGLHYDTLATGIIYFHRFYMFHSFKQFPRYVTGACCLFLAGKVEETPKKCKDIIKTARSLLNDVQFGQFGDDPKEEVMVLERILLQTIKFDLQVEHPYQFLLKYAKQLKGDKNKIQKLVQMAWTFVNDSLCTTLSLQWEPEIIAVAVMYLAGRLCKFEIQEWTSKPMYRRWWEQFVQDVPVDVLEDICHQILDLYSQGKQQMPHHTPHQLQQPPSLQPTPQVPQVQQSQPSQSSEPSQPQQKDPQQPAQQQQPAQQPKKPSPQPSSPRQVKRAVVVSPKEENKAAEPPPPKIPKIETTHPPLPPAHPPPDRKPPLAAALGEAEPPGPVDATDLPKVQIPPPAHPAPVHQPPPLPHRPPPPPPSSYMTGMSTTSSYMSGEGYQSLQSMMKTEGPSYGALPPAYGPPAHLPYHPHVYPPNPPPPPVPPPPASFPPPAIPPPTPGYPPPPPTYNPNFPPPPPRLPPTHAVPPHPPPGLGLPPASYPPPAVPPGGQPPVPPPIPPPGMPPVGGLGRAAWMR
substance,measurement,setting,value
Growth Arrest and DNA Damage-Inducible Proteins-Interacting Protein 1 [CRIF1],presence in / binding to CDK7 complexes,CDK7,not present; also recorded: does not bind
same,S65 and T70 phosphorylation of 4E-BP1 by CDK12,CDK12,inhibits
same,S65 and T70 phosphorylation of 4E-BP1 by CDK12,CDK12; listed as rCRIF1,potently and selectively inhibited
same,presence in / binding to CDK9 complexes,CDK9,not present; also recorded: does not bind
same,CDK9/P-TEFb phosphorylation of the GST-CTD substrate,[1]; listed as Recombinant CRIF1,does not inhibit
same,CDK9/P-TEFb phosphorylation of the GST-CTD substrate,[1]; listed as rCRIF,no effect
